{"source": "patent US6451856B1", "about": "“Carnitine supplemented diets for gestating and lactating swine” (Lonza Inc., priority 1996, dated 2002)", "format_in_all_cases": "in vivo, swine", "key": {"sows (PIC Line C-15x326) [1]": {"tested_on": "sows (PIC Line C-15x326)", "test": "Sow plasma analysis for insulin and IGF-I", "protocol": "Sows were bled at day 10, 60, 90 and 110 of gestation and at weaning. Plasma samples were analyzed for concentration of free and total carnitine, insulin, and insulin-like growth factor I (IGF-I). The data were analyzed by analysis of variance using GLM procedure of SAS (1988)."}, "sows (PIC Line C-15x326) [2]": {"tested_on": "sows (PIC Line C-15x326)", "test": "Effect of L-carnitine fed during gestation, lactation or both on sow and litter performance", "conditions": "for Litter birth weight / Litter weight at weaning / Litter weight gain / Pig birth weight / Pig wean weight / Pig weight gain / Survivability: 50 ppm L-carnitine in diet; for Pigs weaned per litter / Average daily feed intake, overall / Average daily feed intake, wk 1 / Average daily feed intake, wk 2: 50 ppm L-carnitine; for Pigs weaned per litter: pigs per litter on day 2 as covariate; for Average daily feed intake, overall / Average daily feed intake, wk 1 / Average daily feed intake, wk 2: sow lactation feed intake", "excerpt": "A total of 307 sows (PIC Line C-15x326) were used to determine the effect of feeding 50 ppm L-carnitine on the sow and litter performance. Sows were randomly assigned to either control or test dietary treatments. The three test treatments were designated as follows: (i) control/carnitine (in which carnitine was supplemented only during the period of lactation); (ii) carnitine/control (in which carnitine was supplemented only during the period of gestation) and (iii) carnitine/carnitine (in which carnitine was supplemented during the periods of both gestation and lactation).\nA gestation diet was formulated to contain nutrients in excess of NRC (1988) estimates, and included 79.51% milo; 15.22% soybean meal (46.5% CP); 2.51% monocalcium phosphate; 1.11% limestone; 0.5% sodium chloride; 0.25% sow premix; 0.25% vitamin premix; and 0.15% trace element premix. This diet contained 0.65% total lysine, 0.95% Ca and 0.85% P. Experimental gestation diet contained 50 ppm L-carnitine. Sows were fed 4 lb of diet/day once a day until farrowing. Sows were weighed and last rib fat debt was recorded at day 110 of gestation. At farrowing, a number of pigs born live, stillborn, and mummies were recorded. Individual pig weight and litter weight were also recorded. Within 48 hours from farrowing, litters were equalized within dietary treatment.\nA lactation diet was formulated to contain nutrients in excess of NRC (1988) estimates, and included 62.91% milo; 28.41% soybean meal (46.5% CP); 4% soybean oil; 2.33% monocalcium phosphate; 1.12% limestone; 0.5% sodium chloride; 0.25% sow premix; 0.25% vitamin premix; 0.15% trace element premix; 0.05% vitamin E and 0.02% DL-Methionine. This diet contained 1.0% total lysine, 0.95% Ca and 0.85% P. Experimental lactation diet contained 50 ppm L-carnitine. The sows were allowed ad libitum access to feed. Feed intake was measured weekly. Pigs were weighed at weaning to determine pig and litter weight. Sows were ultrasonically scanned for last rib fat debt at weaning.\nThe data were analyzed by analysis of variance using GLM procedure of SAS (1988)."}, "sows (PIC Line C-15x326) [3]": {"tested_on": "sows (PIC Line C-15x326)", "test": "Effects of L-carnitine on subsequent reproductive performance (second reproductive cycle, no carnitine)", "conditions": "for Days to estrus / Farrowing rate / Number born live / Number total born: first-cycle 50 ppm L-carnitine; for Farrowing rate / Number born live / Number total born: second cycle", "protocol": "The effect of carnitine on subsequent reproductive performance was also measured. Sows fed diets described above were continued to be monitored during the subsequent, i.e., second cycle of reproduction. The sow diets were not supplemented with carnitine during the second cycle of reproduction to determine if carnitine had any residual effect. The total number of pigs born and the number of pigs born alive were determined. Referring to Table 5, feeding carnitine in the first reproductive cycle increased the total number of born pigs and the number of pigs born alive in the second reproductive cycle."}, "[4]": {"conditions": "gestation and lactation (carnitine/carnitine)"}, "[5]": {"conditions": "gestation only (carnitine/control)"}, "[6]": {"conditions": "gestation only (carnitine/control), listed as Carnitine"}, "[7]": {"conditions": "lactation only (control/carnitine)"}, "[8]": {"conditions": "carnitine fed in the first reproductive cycle, none in the second"}}, "data": [{"smiles": "C[N+](C)(C)C[C@H](O)CC(=O)[O-]", "note": "[L-carnitine]", "values": [{"measurement": "insulin levels in the plasma of sows", "setting": "sows (PIC Line C-15x326) [1]; days 10 and 60 of gestation, P<0.07", "value": "tended to increase"}, {"measurement": "IGF-I concentration in sow plasma", "setting": "sows (PIC Line C-15x326) [1]; gestation days 60 and 90", "value": "tended to increase"}, {"measurement": "Litter birth weight", "setting": "sows (PIC Line C-15x326) [2]; [4]", "value": 34.49, "unit": "lb"}, {"measurement": "Litter weight at weaning", "setting": "sows (PIC Line C-15x326) [2]; [4]", "value": 99.03, "unit": "lb"}, {"measurement": "Litter weight gain", "setting": "sows (PIC Line C-15x326) [2]; [4]", "value": 64.25, "unit": "lb"}, {"measurement": "Pig birth weight", "setting": "sows (PIC Line C-15x326) [2]; [4]", "value": 3.53, "unit": "lb"}, {"measurement": "Pig wean weight", "setting": "sows (PIC Line C-15x326) [2]; [4]", "value": 10.99, "unit": "lb"}, {"measurement": "Pig weight gain", "setting": "sows (PIC Line C-15x326) [2]; [4]", "value": 7.45, "unit": "lb"}, {"measurement": "Survivability", "setting": "sows (PIC Line C-15x326) [2]; [4]", "value": 90.45, "unit": "%"}, {"measurement": "Litter birth weight", "setting": "sows (PIC Line C-15x326) [2]; [5]", "value": "increased"}, {"measurement": "Litter weight at weaning", "setting": "sows (PIC Line C-15x326) [2]; [5]", "value": "increased"}, {"measurement": "Litter weight gain", "setting": "sows (PIC Line C-15x326) [2]; [5]", "value": "increased"}, {"measurement": "Pig birth weight", "setting": "sows (PIC Line C-15x326) [2]; [5]", "value": "increased"}, {"measurement": "Pig wean weight", "setting": "sows (PIC Line C-15x326) [2]; [5]", "value": "increased"}, {"measurement": "Pig weight gain", "setting": "sows (PIC Line C-15x326) [2]; [5]", "value": "increased"}, {"measurement": "Survivability", "setting": "sows (PIC Line C-15x326) [2]; [5]", "value": 86.87, "unit": "%"}, {"measurement": "Litter birth weight", "setting": "sows (PIC Line C-15x326) [2]; [6]", "value": 34.46, "unit": "lb"}, {"measurement": "Litter weight at weaning", "setting": "sows (PIC Line C-15x326) [2]; [6]", "value": 97.69, "unit": "lb"}, {"measurement": "Litter weight gain", "setting": "sows (PIC Line C-15x326) [2]; [6]", "value": 62.83, "unit": "lb"}, {"measurement": "Pig birth weight", "setting": "sows (PIC Line C-15x326) [2]; [6]", "value": 3.45, "unit": "lb"}, {"measurement": "Pig wean weight", "setting": "sows (PIC Line C-15x326) [2]; [6]", "value": 10.94, "unit": "lb"}, {"measurement": "Pig weight gain", "setting": "sows (PIC Line C-15x326) [2]; [6]", "value": 7.52, "unit": "lb"}, {"measurement": "Litter birth weight", "setting": "sows (PIC Line C-15x326) [2]; [7]", "value": 32.73, "unit": "lb"}, {"measurement": "Litter weight at weaning", "setting": "sows (PIC Line C-15x326) [2]; [7]", "value": 91.91, "unit": "lb"}, {"measurement": "Litter weight gain", "setting": "sows (PIC Line C-15x326) [2]; [7]", "value": 58.59, "unit": "lb"}, {"measurement": "Pig birth weight", "setting": "sows (PIC Line C-15x326) [2]; [7]", "value": 3.32, "unit": "lb"}, {"measurement": "Pig wean weight", "setting": "sows (PIC Line C-15x326) [2]; [7]", "value": 10.38, "unit": "lb"}, {"measurement": "Pig weight gain", "setting": "sows (PIC Line C-15x326) [2]; [7]", "value": 7.11, "unit": "lb"}, {"measurement": "Survivability", "setting": "sows (PIC Line C-15x326) [2]; [7]", "value": 86.08, "unit": "%"}, {"measurement": "Pigs weaned per litter", "setting": "sows (PIC Line C-15x326) [2]; [4]", "value": 9.00}, {"measurement": "Pigs weaned per litter", "setting": "sows (PIC Line C-15x326) [2]; [5]", "value": 9.02}, {"measurement": "Pigs weaned per litter", "setting": "sows (PIC Line C-15x326) [2]; [7]", "value": 8.89}, {"measurement": "sow weight at weaning", "setting": "sows (PIC Line C-15x326) [2]; L-carnitine during gestation only, control 493, P<0.01", "value": 511, "unit": "lb"}, {"measurement": "sow weight at weaning", "setting": "sows (PIC Line C-15x326) [2]; carnitine during both gestation and lactation, control 493 lb", "value": 524, "unit": "lb"}, {"measurement": "sow or litter performance", "setting": "sows (PIC Line C-15x326) [2]; carnitine during the period of lactation only, versus control", "value": "no differences were observed"}, {"measurement": "number of stillborn pigs per litter", "setting": "sows (PIC Line C-15x326) [2]; carnitine-supplemented diet during gestation only, control 0.76, P<0.02", "value": 0.49, "unit": "stillborn pigs/litter"}, {"measurement": "Average daily feed intake, overall", "setting": "sows (PIC Line C-15x326) [2]; [4]", "value": 13.58, "unit": "lb"}, {"measurement": "Average daily feed intake, wk 1", "setting": "sows (PIC Line C-15x326) [2]; [4]", "value": 11.88, "unit": "lb"}, {"measurement": "Average daily feed intake, wk 2", "setting": "sows (PIC Line C-15x326) [2]; [4]", "value": 14.87, "unit": "lb"}, {"measurement": "Average daily feed intake, overall", "setting": "sows (PIC Line C-15x326) [2]; [5]", "value": 13.16, "unit": "lb"}, {"measurement": "Average daily feed intake, wk 1", "setting": "sows (PIC Line C-15x326) [2]; [5]", "value": 11.52, "unit": "lb"}, {"measurement": "Average daily feed intake, wk 2", "setting": "sows (PIC Line C-15x326) [2]; [5]", "value": 14.70, "unit": "lb"}, {"measurement": "Average daily feed intake, overall", "setting": "sows (PIC Line C-15x326) [2]; [7]", "value": 13.01, "unit": "lb"}, {"measurement": "Average daily feed intake, wk 1", "setting": "sows (PIC Line C-15x326) [2]; [7]", "value": 11.55, "unit": "lb"}, {"measurement": "Average daily feed intake, wk 2", "setting": "sows (PIC Line C-15x326) [2]; [7]", "value": 14.41, "unit": "lb"}, {"measurement": "number of pigs born alive in the second reproductive cycle", "setting": "sows (PIC Line C-15x326) [3]; [8]", "value": "increased"}, {"measurement": "total number of born pigs in the second reproductive cycle", "setting": "sows (PIC Line C-15x326) [3]; [8]", "value": "increased"}, {"measurement": "Days to estrus", "setting": "sows (PIC Line C-15x326) [3]; [4]", "value": 5.37, "unit": "days"}, {"measurement": "Days to estrus", "setting": "sows (PIC Line C-15x326) [3]; [5]", "value": 6.11, "unit": "days"}, {"measurement": "Days to estrus", "setting": "sows (PIC Line C-15x326) [3]; [7]", "value": 5.82, "unit": "days"}, {"measurement": "Farrowing rate", "setting": "sows (PIC Line C-15x326) [3]; [4]", "value": 93.2, "unit": "%"}, {"measurement": "Number born live", "setting": "sows (PIC Line C-15x326) [3]; [4]", "value": 12.03}, {"measurement": "Number total born", "setting": "sows (PIC Line C-15x326) [3]; [4]", "value": 12.85}, {"measurement": "Farrowing rate", "setting": "sows (PIC Line C-15x326) [3]; [5]", "value": 86.5, "unit": "%"}, {"measurement": "Number born live", "setting": "sows (PIC Line C-15x326) [3]; [5]", "value": 11.17}, {"measurement": "Number total born", "setting": "sows (PIC Line C-15x326) [3]; [5]", "value": 11.97}, {"measurement": "Farrowing rate", "setting": "sows (PIC Line C-15x326) [3]; [7]", "value": 96.3, "unit": "%"}, {"measurement": "Number born live", "setting": "sows (PIC Line C-15x326) [3]; [7]", "value": 11.22}, {"measurement": "Number total born", "setting": "sows (PIC Line C-15x326) [3]; [7]", "value": 12.26}]}]}
